How the values were obtained:
MAPKAPK5 = target: T1, MAPKAPK5 (Homo sapiens, UniProt Q8IW41); assay: MAPKAP-K5 FlashPlate kinase assay; format: biochemical; conditions: 0.6 μM ATP, 30 minutes, room temperature
T1 sequence (Q8IW41 1-471 isoform Q8IW41-2): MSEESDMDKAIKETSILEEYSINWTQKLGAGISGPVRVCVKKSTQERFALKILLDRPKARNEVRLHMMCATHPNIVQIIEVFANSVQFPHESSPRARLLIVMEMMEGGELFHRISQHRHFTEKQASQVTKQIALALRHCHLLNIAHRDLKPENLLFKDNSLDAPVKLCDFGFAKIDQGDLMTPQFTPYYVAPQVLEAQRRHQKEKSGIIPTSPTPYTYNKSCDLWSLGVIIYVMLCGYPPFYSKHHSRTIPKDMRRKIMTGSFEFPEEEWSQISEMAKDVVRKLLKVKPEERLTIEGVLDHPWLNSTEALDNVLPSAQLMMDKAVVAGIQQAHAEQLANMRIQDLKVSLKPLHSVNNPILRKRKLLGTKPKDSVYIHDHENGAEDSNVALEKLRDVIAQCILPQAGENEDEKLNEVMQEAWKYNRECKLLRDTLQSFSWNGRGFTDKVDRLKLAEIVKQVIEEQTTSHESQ
Experimental: MAPKAP-K5 reactions are performed in FlashPlate format using 0.1 or 0.2 μCi 33P-ATP; 0.6 μM ATP; 1 mU MAPKAP-K5; 3 μM MAPKAP-K5 peptide substrate, incubated at room temperature for 30 minutes.
The MAPKAP-K5 kinase reaction is performed in a 384 well polypropylene plate (Matrix Technologies) and then transferred to a streptavidin-coated 384 well flashplate (Perkin-Elmer). To wells containing 2 μL test compound or standard inhibitor, 13 μL Enzyme mix or diluent are added using a Hydra (Robbins Scientific). Reactions are started by addition of 10 μL of [2.5×] substrate cocktail using a Multidrop (Thermo-Labsystems), to give final concentrations in the assay of: • 1 mU MAPKAP-K5 • 3 μM MAPKAP-K5 peptide substrate • 0.6 μM ATP • 0.004 μCi [33P]-γ-ATP/μL • 1× reaction buffer
Plates are incubated at room temperature for 30 minutes. Reactions are terminated by the addition of 25 μL EDTA (50 mM) to each well using a Micro-fill (Biotek). Reactions are transferred to a streptavidin-coated flashplate using a Zymark robotic system. Plates are incubated for 60 minutes at room temperature. All wells are washed 3 times with 100 μl phosphate buffered saline using a Tecan plate washer. Radioactivity is determined by scintillation counting of the flashplate (empty wells) on a Packard TopCount.
Enzyme Mix: • Enzyme • 50 mM Tris Hcl (pH 7.5) • 0.1 mM EGTA • 2 mM DTT • 1 mg/mL BSA
Reaction Buffer: • 50 mM Tris Hcl (pH 7.5) • 0.1 mM EGTA • 10 mM Magnesium acetate • 2 mM DTT

[1] = system: MMP13 expression in SW1353 chondrosarcoma cell line; assay: MMP13 assay: IL-1/OSM-driven MMP13 expression in SW1353 cells (MMP13 ELISA); format: cell-based; conditions: Homo sapiens, IL-1β and OSM, 48 hr
Experimental: The protocol of the MMP13 ELISA is described in section 4.1, then testing of compounds on release of IL-1/OSM-driven MMP13 expression in SW1353 chondrosarcoma cell line is described in section 4.2.
A 384 well format ELISA for measurement of MMP13 was developed. Various primary antibodies were tested, as well as various ELISA protocols. The following protocol is developed and validated to measure MMP13 levels in supernatant of cell cultures in 384 well plates.
Black maxisorb 384 well plates (Nunc 460518) are coated with 35 μl of a buffered solution containing 1.5 μg/mL anti-MMP13 antibody MAB511 (R&D systems). The antibody is diluted in carbonate-bicarbonate coating buffer (1.59 g Na2CO3 (Sigma S-7795) and 2.93 g NaHCO3 (Sigma S-5761) in 1 L MilliQ water, adjusted to pH 9.6). After overnight incubation at 4° C., wells are washed twice with 100 μL PBST (80 g NaCl, 2 g KCl (Sigma), 11.5 g Na2HPO4.7H2O and 2 g KH2PO4 in 10 L milliQ water; pH 7.4+0.05% Tween-20 (Sigma)) and blocked with 100 μL/well blocking buffer (5% non fat dry milk in PBS). After overnight incubation at 4° C., wells are washed twice with 100 μL PBST. The PBST is removed and 35 μL of sample is transferred to the ELISA plates. After 4 hr incubation at RT, plates are washed twice with PBST and incubated for 1 hr at 37° C. with 35 μL/well 1.5 mM APMA solution (a 10 mM APMA stock solution is prepared one day before (35.18 mg APMA (Sigma A-9563) in 10 mL 0.1M NaOH (Merck 1.06469.1000) and stored at 4° C. Before use, the 10 mM APMA stock solution is diluted to 1.5 mM in 1×APMA buffer (10× APMA buffer: 500 mM Tris (Roche 708976), 50 mM CaCl2 (Sigma C-5080), […] ZnCl2 (Sigma Z-0173), 1.5 M NaCl (Calbiochem 567441), 0.5% Brij35 (Sigma 430 AG-6) and adjust to pH 7.0). After activation of MMP13 by APMA, plates are washed again two times with 100 μL PBST/well and 35 μL of substrate solution is added to each well. Substrate solution is prepared as follows: OmniMMP Fluorescent substrate (Biomol P-126) stock solution (2 mM in DMSO, stored at −20° C.) is diluted in 1× OmniMMP buffer (10× OmniMMP buffer: 500 mM Hepes (Sigma H4034), 100 mM CaCl2 (Sigma C5080), 0.5% Brij35 (Sigma 430 AG-6; adjusted to pH 7.0) to a final concentration of 0.01 mM. After an overnight incubation at 37° C., the active MMP13 in the sample has cleaved the substrate and released fluorescence. Readout is performed on the EnVision (Perkin Elmer) using 320 nm excitation/405 nm emission filters.
Human chondrosarcoma cell line SW1353 was acquired from ATCC and grown in DMEM supplemented with 10% heat-inactivated FBS and 1× penicillin/streptomycin (Invitrogen) in a humidified 5% CO2 incubator at 37° C. Aliquots of the cells were frozen and cryopreserved in liquid nitrogen. Starting from a cryopreserved aliquot, cells are further grown by sub-culturing at a 1/5-1/8 ratio twice a week by trypsinisation.
Starting from the compound master stocks (all at 10 mM concentration in 100% DMSO) a 3-fold serial dilution is made in 96-well plates in 100% DMSO. Then, plates are futher diluted 50-fold in M199 medium supplemented with 1% heat-inactivated FBS to obtain an intermediate work stock.
At day 1, SW1353 cells are seeded in 96-well plates (flat bottom, tissue culture treated, Greiner) at a density of 15000 cells/well in 120 μL growth medium. The next day, 15 μL compound out of the intermediate work stock is added. After an incubation period of 60 minutes, which allows the compounds to equilibrate and enter the cells, cells are stimulated with a mixture of IL-1β and OSM, added in a volume of 15 μL to obtain final concentrations of 1 ng/ml IL-1β and 25 ng/ml OSM. For that, stocks of IL-1 (10 μg/ml) and OSM (25 μg/ml) (both PeproTech) were diluted to 10 ng/ml and 250 ng/ml respectively, in M199 medium supplemented with 1% FBS. After incubation for 48 hr, the cell supernatant was harvested and an appropriate dilution was processed in the MMP13 ELISA as described above, delivering raw data (RFU: relative fluorescence units). […]

[2] = system: MMP1 expression by activated synovial fibroblasts (RASFs); assay: 'MMP assay': complex trigger-induced MMP1 expression by synovial fibroblasts (MMP1 ELISA); format: cell-based; conditions: Homo sapiens, Fibroblast; RASFs, complex trigger, 48 hrs; read-out: MMP1 IC50
Experimental: A 384-well format ELISA for measurement of MMP1 is developed. Various primary antibodies are tested, as well as various ELISA protocols. The following protocol is developed and validated to measure MMP1 levels in SF supernatant in 384 well plates: white Lumitrac 600 384 well plates (Greiner) are coated with 2 μg/mL anti-MMP1 antibody MAB1346 (Chemicon). The antibody is diluted in buffer 40 (1.21 g Tris base (Sigma), 0.58 g NaCl (Calbiochem) and 5 ml 10% NaN3 (Sigma) in 1 L milliQ water and adjusted to pH 8.5). After overnight incubation at 4° C., plates are washed with PBS (80 g NaCl, 2 g KCl (Sigma), 11.5 g Na2HPO4.7H2O and 2 g KH2PO4 in 10 L milliQ; pH 7.4) and blocked with 100 μL/well Casein buffer (2% Casein (VWR International) in PBS). Next day, casein buffer is removed from ELISA plates and replaced by 50 μL/well EC buffer (4 g casein, 2.13 g Na2HPO4 (Sigma), 2 g bovine albumin (Sigma), 0.69 g NaH2PO4.H2O (Sigma), 0.5 g CHAPS (Roche), 23.3 g NaCl, 4 ml 0,5 M EDTA pH 8 (Invitrogen), 5 ml 10% NaN3 in 1 L milliQ and adjusted to pH 7.0). 0.25 mM DTT (Sigma) is added to the thawed samples plates. After removal of the EC buffer, 20 μL of sample is transferred to the ELISA plates. After overnight incubation at 4° C. plates are washed twice with PBS and once with PBST (PBS with 0.05% Tween-20 (Sigma)) and incubated with 35 μL/well biotinylated anti-MMP1 antibody solution (R&D). This secondary antibody is diluted in buffer C (0.82 g NaH2PO4.H2O, 4.82 g Na2HPO4, 46.6 g NaCl, 20 g bovine albumin and 4 mL 0,5M EDTA pH 8 in 2 L milliQ and adjusted to pH 7.0) at a concentration of 5 μg/mL. After 2 h of incubation at RT, plates are washed as described above and incubated with 50 μL/well streptavidin-HRP conjugate (Biosource). Streptavidin-HRP conjugate is diluted in buffer C at a concentration of 0.25 μg/mL. After 45 min, plates are washed as described above and incubated for 5 min with 50 μL/well BM Chem ELISA Substrate (Roche). Readout is performed on the Luminoscan Ascent Luminometer (Labsystems) with an integration time of 200 msec or with an Envision reader (Perkin Elmer).
The increase of MMP1 expression by SFs upon treatment with cytokines relevant in the field of RA (TNF-α, IL1β and OSM) or a combination thereof is shown in FIG. 2 as white bars. For this experiment, SFs are seeded in 96 well plates, 3,000 cells/well. 24 h later, the medium is changed to M199 medium supplemented with 1% FBS. One day after the medium change, cytokines or combinations thereof are added to the cultures, each cytokine being added to a final concentration of 25 ng/mL. 72 h after cytokine addition, the supernatant is collected and processed in the MMP1 ELISA as described in the protocol given above. In parallel with this experiment, SFs are triggered, using the same protocol, with the supernatant of THP1 cells (2-fold diluted in M199+1% FBS) treated with the same cytokines or combinations of cytokines for 48 h in M199 medium+1% FBS. The induction of the MMP1 expression by SFs triggered with the supernatants of TNF-α-treated THP1 cells is stronger (>4.5 fold induction) as compared to the SFs triggered with recombinant TNF-α alone (3-fold induction) and almost equals the 5-fold induction obtained by a mixture of 3 purified cytokines (TNF-α, IL1βb, OSM). […] As the role of TNF-α in the RA pathogenesis is validated (TNF-α-blockers such as Infliximab and Etanercept show some efficacy in the treatment of RA patients) and the THP-1 cells are representative for monocytes/macrophages present in the joint of RA patients, the TNF-α-based trigger mixture prepared by contacting THP-1 cells with TNF-α will contain factors present in the joints of RA patients and subsequently is relevant to RA. This TNF-α-based complex trigger, further referred to as the ‘complex trigger’, will further be used as basis for the ‘MMP assay’. […]

| SMILES | IC50 (MAPKAPK5) | IC50 [1] | IC50 [2] |
| --- | --- | --- | --- |
| CC(C)N1CC2CCC1CN2c1ccc(Nc2ncc(-c3coc(C(N)=O)c3)n3ccnc23)cc1 (stereo not drawn) [Compound 10, 4-{8-(4-(5-isopropyl-1-2,5-diazabicyclo[2.2.2]octan-2-yl)phenylamino)-imidazo[1,2-a]pyrazin-5-yl}-furan-2-carboxamide] | 101 to 500 nM | – | > 1000 nM |
| CC(C)N1CC2CCC(C1)N2c1ccc(Nc2ncc(-c3coc(C(N)=O)c3)n3ncnc23)cc1 [Compound 13, 4-{8-(4-(3-isopropyl-3,8-diazabicyclo[3.2.1]octan-8-yl)phenylamino)[1,2,4]-triazolo[1,5-a]pyrazin-5-yl}-furan-2-carboxamide] | 0.01 to 100 nM | > 1000 nM | – |
| CC(C)N1C2CCC1CN(c1ccc(Nc3ncc(-c4coc(C(N)=O)c4)n4ccnc34)cc1)C2 [Compound 14, 4-{8-(4-(8-isopropyl-3,8-diazabicyclo[3.2.1]octan-3-yl)phenylamino)-imidazo[1,2-a]pyrazin-5-yl}-furan-2-carboxamide] | 101 to 500 nM | – | > 1000 nM |

Further lines, with some results ahead:

| IC50 (MAPKAPK5) | SMILES | IC50 [1] | IC50 [2] |
| --- | --- | --- | --- |
| 0.01 to 100 nM | CC(C)N1C[C@@H]2C[C@H]1CN2c1ccc(Nc2ncc(-c3coc(C(N)=O)c3)n3ncnc23)cn1 [Compound 7, 4-{8-(6-((1S,4S)-5-isopropyl-2,5-diazabicyclo[2.2.1]heptan-2-yl)pyridin-3-ylamino)-[1,2,4]triazolo[1,5-a]pyrazin-5-yl}-furan-2-carboxamide] | 1 to 500 nM | – |
| 0.01 to 100 nM | CC(C)N1C[C@H]2C[C@@H]1CN2c1ccc(Nc2ncc(-c3coc(C(N)=O)c3)n3ncnc23)cc1 [Compound 27, 4-[8-({4-[(1R,4R)-5-isopropyl-2,5-diazabicyclo[2.2.1]hept-2-yl]phenyl}amino)[1,2,4]triazolo[1,5-a]pyrazin-5-yl]-2-furamide] | – | – |
